Test results published in patent US8895637B2, “Environment-friendly antifoulants for the prevention of biofouling” (University of North Texas Health Science Center at Fort …, priority 2007, dated 2014).
Where two headings read alike, the source gives them in different places.

Tests used:
zebra mussel = settings: controlled laboratory setting; cited from earlier work
[1] = system: zebra mussels (Dreissena polymorpha)
[2] = system: Daphnia magna (water flea); test: non-target organism screening, Daphnia cumulative mortality; assay type: in vivo; settings: for lethal effect / toxicity towards non-target (Daphnia) organism: at a dose that totally prevents fouling by mussels; for toxicity to other non-target organisms (water fleas, Daphnia magna): summary statement
Procedure: Those compounds that were determined to be highly efficacious zebra mussel antifoulants with little or no toxicity were additionally assessed for toxicity in another non-target aquatic species. The freshwater cladoceran crustacean Daphnia magna (water flea) is commonly utilized for aquatic toxicity testing (Suedel et al., 1997), with 10,583 tests of toxic end points being reported for this species on the USEPA ECOTOX web site. Three replicates of 20 adult specimens of D. magna were exposed to each compound employing a dose range that was the same or greater than that used in zebra mussel antifouling studies. The conditions for toxicity testing of water fleas were the same as those used for testing zebra mussel antifouling and toxicity (i.e., polypropylene containers at 15° C.), except that test medium volume was 40 ml and exposure was increased to three days. Dead individuals were removed every 24 h and the total number of surviving individuals was recorded at the end of 1, 2, and 3 days. Although the level of Daphnia mortality was too low in most cases, when it was high enough to be reliably estimated then the Daphnia lethal dose values (i.e., LD50) were estimated using the same methods employed in the mussel byssal attachment studies. Uniformity of test organisms was maintained by establishing a laboratory D. magna culture with specimens initially purchased from a biological supply company.

[3] = mixed with paint applied to a surface or applied as a dust; cited from earlier work
[4] = molecular target: vanilloid receptor 1 (VR1) receptor (Homo sapiens, UniProt Q8NER1); settings: cited from earlier work
Sequence of vanilloid receptor 1 (VR1) receptor (Q8NER1 whole entry, species assumed): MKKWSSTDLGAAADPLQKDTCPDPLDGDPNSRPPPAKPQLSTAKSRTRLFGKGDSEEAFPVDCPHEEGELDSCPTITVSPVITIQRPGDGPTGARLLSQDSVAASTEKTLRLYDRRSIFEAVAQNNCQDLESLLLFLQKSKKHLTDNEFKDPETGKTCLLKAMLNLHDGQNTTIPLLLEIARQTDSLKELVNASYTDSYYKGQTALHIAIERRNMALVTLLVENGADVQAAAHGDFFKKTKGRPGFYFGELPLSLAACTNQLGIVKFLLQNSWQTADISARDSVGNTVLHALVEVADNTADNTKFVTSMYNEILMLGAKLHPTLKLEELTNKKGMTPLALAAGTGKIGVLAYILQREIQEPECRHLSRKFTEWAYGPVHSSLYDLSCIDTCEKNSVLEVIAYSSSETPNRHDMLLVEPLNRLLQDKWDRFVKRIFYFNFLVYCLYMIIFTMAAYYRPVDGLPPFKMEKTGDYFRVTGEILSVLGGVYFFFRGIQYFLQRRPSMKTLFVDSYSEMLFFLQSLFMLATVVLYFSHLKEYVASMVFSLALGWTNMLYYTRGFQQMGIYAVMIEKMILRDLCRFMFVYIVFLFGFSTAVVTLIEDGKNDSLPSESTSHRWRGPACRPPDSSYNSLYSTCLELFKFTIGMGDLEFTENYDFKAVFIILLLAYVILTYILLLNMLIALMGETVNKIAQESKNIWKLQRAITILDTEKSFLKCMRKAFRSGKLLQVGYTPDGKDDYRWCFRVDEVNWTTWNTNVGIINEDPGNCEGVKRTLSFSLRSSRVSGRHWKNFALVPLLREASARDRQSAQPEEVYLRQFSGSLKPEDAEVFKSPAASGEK

[5] = single high concentration (e.g., 30 μM), 48 h, FIG. 4 and FIG. 6
[6] = single high concentration (e.g., 30 μM), second 48 h post-exposure / both periods

COc1cc(CNC(=O)CCCC/C=C/C(C)C)ccc1O (racemic) [capsaicin, reference compound]
zebra mussel antifoulant effect (zebra mussel): effective | residual effect to the target organism ([1]; in vivo): little residual effect | toxicity to the target organism (zebra mussels) ([1]; in vivo): reduced toxicity | zebra mussel antifouling efficacy ([1]; in vivo): efficacious | lethal effect / toxicity towards non-target (Daphnia) organism [2]: no toxicity | toxicity to other non-target organisms (water fleas, Daphnia magna) [2]: reduced toxicity | antifouling effectiveness compared with copper [3]: not as effective as copper

COc1ccc(C(=O)c2c(C)n(CCN3CCOCC3)c3cc(I)ccc23)cc1 [AM630]
antifouling efficacy (fraction of unattached mussels during the first 48 h) ([1]; in vivo): efficacious | dose that totally prevents fouling by mussels ([1]; in vivo): 4 µM | residual effect to the target organism ([1]; in vivo): some residual effect | target organism residual effects ("toxicity") or lethality ([1]; in vivo): minimal | zebra mussel antifouling efficacy ([1]; in vivo): efficacious | lethal effect / toxicity towards non-target (Daphnia) organism [2]: no significant lethality

CCCCCCC(C)(C)c1ccc([C@@H]2C[C@H](O)CC[C@@H]2CCCO)c(O)c1 [CP55,940]
antifouling efficacy (fraction of unattached mussels during the first 48 h) [1, 5]: efficacious | target organism residual effects ("toxicity") or lethality [1, 6]: minimal

CCCCC/C=C\C/C=C\CCCCCCCC(=O)NCCO [Linoleyl ethanolamide]
antifouling efficacy (fraction of unattached mussels during the first 48 h) ([1]; in vivo): efficacious | target organism residual effects ("toxicity") or lethality ([1]; in vivo): minimal

CCCCCCCCCC(=O)NC(CC)CO (centres unmarked) [N-(1-(hydroxymethyl)propyl)decanamide]
antifouling efficacy (fraction of unattached mussels during the first 48 h) ([1]; in vivo): efficacious | target organism residual effects ("toxicity") or lethality ([1]; in vivo): minimal

CCCCCCCCCCCC(=O)NCC(=O)NN=Cc1ccc(OC)c(OC)c1 [N-(2-(2-(3,4-dimethoxybenzylidene)hydrazine)-2-oxoethyl)dodecanamide]
antifouling efficacy (fraction of unattached mussels during the first 48 h) ([1]; in vivo): efficacious | target organism residual effects ("toxicity") or lethality ([1]; in vivo): minimal

CC1=CC[C@H]2[C@@H](C1)c1c(O)cc(CC#CCCCNS(C)(=O)=O)cc1OC2(C)C [O-2050]
residual effect at a dose that totally prevents biofouling ([1]; 6 μM): no residual effect | antifouling efficacy (fraction of unattached mussels during the first 48 h) ([1]; in vivo): efficacious | antifouling potency ([1]; in vivo): higher potency | dose that totally prevents fouling by mussels ([1]; in vivo): 6 µM | target organism residual effects ("toxicity") or lethality ([1]; in vivo): minimal | zebra mussel antifouling efficacy ([1]; in vivo): efficacious | lethal effect / toxicity towards non-target (Daphnia) organism [2]: no lethal effect

CCCCC/C=C\C/C=C\C/C=C\C/C=C\CCCC(=O)NCCO [anandamide]
antifouling efficacy (fraction of unattached mussels during the first 48 h) ([1]; in vivo): efficacious | dose that totally prevents fouling by mussels ([1]; in vivo): 15 µM | residual effect to the target organism ([1]; in vivo): no residual effect | target organism residual effects ("toxicity") or lethality ([1]; in vivo): minimal | toxicity to the target organism (zebra mussels) ([1]; in vivo): reduced toxicity | zebra mussel antifouling efficacy ([1]; in vivo): efficacious | lethal effect / toxicity towards non-target (Daphnia) organism [2]: no lethal effect | toxicity to other non-target organisms (water fleas, Daphnia magna) [2]: reduced toxicity

COc1cc(CNC(=O)CCCC/C=C/C(C)C)ccc1O [compound 28, 8-methyl-N-vanillyl-trans-6-nonenamide]
antifouling efficacy (fraction of unattached mussels during the first 48 h) ([1]; in vivo): efficacious | target organism residual effects ("toxicity") or lethality ([1]; in vivo): minimal | toxicity of the stereoisomer towards the non-target (Daphnia) organism ([2]; inferred from the result for racemic capsaicin): neither stereoisomer (E or Z) is toxic

COc1cc(CNC(=O)CCCC/C=C\C(C)C)ccc1O [compound 29]
antifouling efficacy (fraction of unattached mussels during the first 48 h) ([1]; in vivo): efficacious | attachment of zebra mussels to aquatic striatum ([1]; in vivo): prevents the attachment | target organism residual effects ("toxicity") or lethality ([1]; in vivo): minimal | toxicity to the target organism ([1]; in vivo): non-toxic | action on the vanilloid receptor 1 (VR1) receptor [4]: does not act on

CCCCC/C=C\C/C=C\C/C=C\C/C=C\CCCCOC(CO)CO [noladin ether]
antifouling efficacy (fraction of unattached mussels during the first 48 h) [1, 5]: efficacious | target organism residual effects ("toxicity") or lethality [1, 6]: minimal

CCCCCCCCC(=O)NCc1ccc(O)c(OC)c1 [pseudocapsaicin, N-vanillylnonanamide]
antifouling ([1]; 20 μM): 100% | antifouling ([1]; 30 μM): 100% | residual effect to the target organism ([1]; in vivo): little residual effect | toxicity to the target organism (zebra mussels) ([1]; in vivo): reduced toxicity | zebra mussel antifouling efficacy ([1]; in vivo): efficacious | Daphnia toxicity over controls ([2]; 72 h exposure, 20 and 30 μM): no measurable toxicity over controls | lethal effect / toxicity towards non-target (Daphnia) organism [2]: not lethal | lethal effect / toxicity towards non-target (Daphnia) organism ([2]; listed as N-vanillylnonanamide): no significant toxicity | Daphnia mortality ([2]; highest test dose (60 μM), 72 h time point): Statistically significant Daphnia mortality | toxicity to other non-target organisms (water fleas, Daphnia magna) [2]: reduced toxicity
